Measurements reported in patent publication US7381743B2, “Macrocycles for the treatment of cancer” (Leibniz-Institut Fuer Pflanzenbiochemie (IPB), priority 2003, dated 2008).
pIC50: −log10 of the molar value. Where two headings read alike, the source gives them in different places. One block for each molecule: values may come before it.

What was measured:
Type in all cases: cell-based
MCF7 breast cancer = test: Proliferation assay (acidic phosphatase), MCF7; details: Homo sapiens, read-out: Proliferation assay GI50, IC-50, MCF7 breast cancer
A 549 lung cancer = test: Proliferation assay (acidic phosphatase), A 549; details: Homo sapiens, A549, 120 h, read-out: Proliferation assay GI50, IC-50, A 549 lung cancer
Protocol: (§1) Proliferation assay GI50: acidic phosphatase, incubation period 5 days, IC-50 (μM)

L 929 mouse fibroblasts = test: Proliferation assay (acidic phosphatase), L 929; details: L929, 120 h, read-out: Proliferation assay GI50, IC-50, L 929 mouse fibroblasts
Protocol: as §1

[1] = acidic phosphatase, incubation period 5 days

SMILES: C/C1=C/C[C@@H](/C(C)=C/c2csc(C)n2)OC(=O)CSC(C)(C)C(=O)[C@H](C)[C@@H](O)[C@@H](C)CCC1 [MC54690, (7R,8S,9S,13Z,16S)-8-hydroxy-5,5,7,9,13-pentamethyl-16-[(E)-1-methyl-2-(2-methyl-1,3-thiazol-4-yl)vinyl]-1-oxa-4-thiacyclohexadec-13-ene-2,6-dione]
- pIC50 (MCF7 breast cancer; MCF7, 120 h): 7.35
- pIC50 (A 549 lung cancer): 8.05
- pIC50 (L 929 mouse fibroblasts): 6.56

SMILES: C/C1=C/C[C@@H](/C(C)=C/c2cccc(C)n2)OC(=O)CSC(C)(C)C(=O)[C@H](C)[C@@H](O)/C(C)=C/CC1 [MC54849, (7R,8R,9E,13Z)-8-Hydroxy-5,5,7,9,13-pentamethyl-16-[(1E)-1-methyl-2-(6-methyl-pyridin-2-yl)-vinyl]-1-oxa-4-thia-cyclohexadec-9,13-dien-2,6-dion]
- pIC50 (MCF7 breast cancer; MCF7, 96 h): 6.27

- pIC50 (MCF7 breast cancer; MCF7, 120 h, acidic phosphatase, incubation period 5 days): 8.52
- pIC50 (A 549 lung cancer; [1]): 8.22
SMILES: CC(=O)O[C@H]1C(=O)[C@@]2(C)[C@H]([C@H](OC(=O)c3ccccc3)[C@]3(O)C[C@H](OC(=O)[C@H](O)[C@@H](NC(=O)c4ccccc4)c4ccccc4)C(C)=C1C3(C)C)[C@]1(OC(C)=O)CO[C@@H]1C[C@@H]2O [Taxol, Paclitaxel, reference compound]
- pIC50 (L 929 mouse fibroblasts; [1]): 6.57

SMILES: C/C1=C/C[C@@H](/C(C)=C/c2csc(C)n2)OC(=O)CS(=O)(=O)C(C)(C)C(=O)[C@H](C)[C@@H](O)[C@@H](C)CCC1 [MC-C5, (7R,8R,9S,13Z)-8-Hydroxy-5,5,7,9,13-pentamethyl-16-[(IE)-1-methyl-2-(2-methyl-thiazol-4-yl)-vinyl]-4,4-dioxo-1-oxa-4-thia-cyclohexadec-13-en-2,6-dion]
- pIC50 (MCF7 breast cancer; MCF7, 120 h): < 5.00
